Where two headings read alike, the source gives them in different places. One block for each compound: values may come before it.
Tests used:
[1] = system: MDA-MB-231 (MDA 231, human breast adenocarcinoma); assay: Cancer cell viability, CCK-8, MDA-MB-231; type: cell-based; details: for EC50: read-out: EC50 (uM, MDA 231); for IC50: read-out: IC50 (uM, MDA 231)
Procedure: (§1) Cancer cell lines. […] The plate is incubated for 48 hours.
(§2) CCK-8 solution is added directly to the cells.

[2] = system: HCT116 (human colon cancer); assay: Cancer cell viability, CCK-8, HCT116; type: cell-based; details: for EC50: read-out: EC50 (uM, HCT116); for IC50: read-out: IC50 (uM, HCT116)
Procedure: as §1, §2

[3] = molecular target: recombinant human caseinolytic peptidase hClpP (Homo sapiens, UniProt Q16740); assay: hClpP peptide hydrolysis assay (Ac-WLA-AMC); details: for Time course of hClpP activity: 1 uM, Protocol 2; for Dose-dependency of hClpP activation: Protocol 2, purified hClpP, Ac-WLA-AMC
Procedure: Briefly, the activity of recombinant hClpP proteolytic subunit (1 μg/mL) was measured in the assay buffer composed of 50 mM Tris, 10 mM MgCl2, 100 mM KCl, 1 mM DTT, 4 mM ATP, 0.02% Triton X-100 and 5% Glycerol, pH 8.0 (HCl) using 10 µM of fluorogenic Ac-WLA-AMC substrate as described in references above. […] Using the first protocol (Protocol 1), the reaction was initiated by immediately mixing enzyme and substrate in the presence of indicated doses of compounds. Applying a second protocol (Protocol 2), the enzyme and compounds were mixed and incubated in assay buffer for 60 min before initiating the reaction by adding Ac-WLA-ACM substrate.
Enzymatic activity of hClpP was measured in assay buffer (as described in Experimental Procedure/Materials and Methods) and the level of fluorescence of liberated coumarin monitored continuously.

[4] = system: ClpX and TUFM; assay: ClpX and TUFM Western blots in SUM159 cells (FIG. 5); details: concentration response and time course
[5] = Homo sapiens, MDA-MB-231, MDA 231, 48 hours, CCK-8
[6] = Homo sapiens, HCT-116, 48 h, HCT116, 48 hours, CCK-8

Sequence of recombinant human caseinolytic peptidase hClpP (Q16740 57-277): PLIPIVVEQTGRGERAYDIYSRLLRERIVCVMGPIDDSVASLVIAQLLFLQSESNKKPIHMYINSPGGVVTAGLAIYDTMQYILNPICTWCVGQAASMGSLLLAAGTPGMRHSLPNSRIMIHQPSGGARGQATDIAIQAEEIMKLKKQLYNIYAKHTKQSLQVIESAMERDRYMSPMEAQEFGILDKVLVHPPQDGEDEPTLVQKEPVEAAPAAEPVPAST

Structure (SMILES): O=C1C2=C(CCN(Cc3cccc(Cl)c3)C2)N2CCN=C2N1Cc1ccc(C(F)(F)F)cc1 [Example 27]
IC50 [1, 5]: 0.016 µM | IC50 [2, 6]: 0.016 µM

Structure (SMILES): Cc1ccccc1CN1C(=O)C2=C(CCN(Cc3ccccc3)C2)N2CCN=C12 [ONC201, reference compound]
ClpX and TUFM protein level [4]: reduction of the protein ClpX and TUFM | EC50 ([1]; Homo sapiens, MDA-MB-231, 48 h): 3 µM | IC50 ([1]; Homo sapiens, MDA-MB-231, 48 h): 3 µM | EC50 ([2]; Homo sapiens, HCT-116, 48 h): 2.8 µM | IC50 ([2]; Homo sapiens, HCT-116, 48 h): 2.8 µM

Structure (SMILES): CC#Cc1cccc(CN2CCc3ncn(Cc4ccc(C(F)(F)F)cc4)c(=O)c3C2)c1 [Example 79]
EC50 [2, 6]: 5.7 µM

Structure (SMILES): CC#Cc1cccc(CN2CCc3ncn(Cc4ccc(Br)cc4)c(=O)c3C2)c1 [Example 78]
EC50 [2, 6]: 5.2 µM

Structure (SMILES): O=C(NCc1ccc2c(c1)OCO2)c1nnc(Cc2ccc(F)cc2Cl)o1 [Ex. 1, reference compound]
Dose-dependency of hClpP activation [3]: dose-dependent increases in hClpP activity

Structure (SMILES): Cn1c2c(c(=O)n(Cc3cccc(C(F)(F)F)c3)c1=O)CN(Cc1ccccc1)CC2 [Example 39]
EC50 [1, 5]: 1.1 µM | EC50 [2, 6]: 1.4 µM

Structure (SMILES): O=C1CCc2ccc(CN3CCC4=C(C3)C(=O)N(Cc3ccc(Cl)cc3)C3=NCCN34)cc21 [Example 64, 7-[(4-chlorophenyl)methyl]-11-[(3-oxo-2,3-dihydro-1H-inden-5-yl)methyl]-2,5,7,11-tetraazatricyclo[7.4.0.0^2,6]trideca-1(9),5-dien-8-one]
EC50 [2, 6]: 10.5 µM

Structure (SMILES): N#Cc1cccc(Cc2nnc(C(=O)NCc3ccc(Cl)cc3)o2)c1 [Example 63, N-[(4-chlorophenyl)methyl]-5-[(3-cyanophenyl)methyl]-1,3,4-oxadiazole-2-carboxamide]
EC50 [1, 5]: 5 µM | EC50 [2, 6]: 4 µM

Structure (SMILES): N#Cc1cccc(CC2CCC3=C(C2)C(=O)N(Cc2ccc(Cl)cc2)C2=NCCN23)c1 (stereo not shown) [Ex. 68, 3-({4-[(4-chlorophenyl)methyl]-5-oxo-1H,2H,4H,5H,6H,7H,8H,9H-imidazo[1,2-a]quinazolin-7-yl}methyl)benzonitrile]
Dose-dependency of hClpP activation [3]: Dose-dependent increases in hClpP activity | EC50 [2, 6]: 1.5 µM

Structure (SMILES): Cn1c2c(c(=O)n(Cc3ccc(C(F)(F)F)cc3)c1=O)CN(Cc1cccc(Cl)c1)CC2 [Example 56]
EC50 ([1]; MDA 231, 48 hours, CCK-8): 0.29 µM | EC50 ([2]; HCT116, 48 hours, CCK-8): 0.098 µM

Structure (SMILES): CC1(C)CN=C2N(Cc3ccc(Cl)cc3)C(=O)C3=C(CCN(Cc4cccc(C#N)c4)C3)N2C1 [Example 70, 3-({9-[(4-chlorophenyl)methyl]-13,13-dimethyl-8-oxo-1,5,9,11-tetraazatricyclo[8.4.0.0^2,7]tetradeca-2 (7), 10-dien-5-yl}methyl)benzonitrile]
EC50 [2, 6]: 1.4 µM

Structure (SMILES): N#Cc1ccc(CN2CCC3=C(C2)C(=O)N(Cc2ccc(Cl)cc2)C2=NCCN23)cc1 [Example 22]
IC50 [1, 5]: 3.4 µM | IC50 [2, 6]: 1.8 µM

Structure (SMILES): O=C1C2=C(CCN(Cc3cccc(OC(F)(F)F)c3)C2)N2CCN=C2N1Cc1ccc(C(F)(F)F)cc1 [Example 3]
IC50 ([1]; MDA 231, 48 hours, CCK-8): 0.27 µM | IC50 ([2]; HCT116, 48 hours, CCK-8): 0.36 µM

Continued, in another order:

EC50 [1, 5]: 0.096 µM | EC50 [2, 6]: 0.097 µM
Structure (SMILES): Cc1nc2c(c(=O)n1Cc1ccc(Cl)cc1)CN(Cc1cccc(C#N)c1)CC2 [Example 61, 3-({3-[(4-chlorophenyl)methyl]-2-methyl-4-oxo-3H,4H,5H,6H,7H,8H-pyrimidin-6-yl}methyl)benzonitrile]

EC50 [2, 6]: 0.039 µM
Structure (SMILES): O=C1C2=C(CN(Cc3ccccc3)C2)N2CCN=C2N1Cc1ccc(Br)cc1 [Example 81, 4-benzyl-8-[(4-bromophenyl)methyl]1,4,8,10-tetraazatricyclo[7.3.0.0^2,6]dodeca-2 (6),9-diene-7-one]
Time course of hClpP activity [3]: time-dependent increase in hClpP activity

EC50 [2, 6]: 0.23 µM
Structure (SMILES): N#Cc1cccc(CN2CCc3c(c(=O)n(Cc4ccc(C(F)(F)F)cc4)c(=O)n3CCCCN)C2)c1 [Example 58, 3-((1-(4-aminobutyl)-2,4-dioxo-3-(4-(trifluoromethyl)benzyl)-1,2,3,4,7,8-hexahydropyrido[4,3-d]pyrimidin-6 (5H)-yl)methyl)benzonitrile]

EC50 [2, 6]: 0.098 µM
Structure (SMILES): N#Cc1cccc(CN2CCc3ncn(Cc4ccc(C(F)(F)F)cc4)c(=O)c3C2)c1 [Example 75, 3-[(4-oxo-3-{[4-(trifluoromethyl)phenyl]methyl}-3H,4H,5H,6H,7H,8H-pyrido[4,3-d]pyrimidin-6-yl)methyl]benzonitrile]

EC50 [2, 6]: 0.01 µM
Structure (SMILES): O=C1C2=C(CN(Cc3ccccc3)C2)N2CCN=C2N1Cc1ccc(C(F)(F)F)cc1 [Example 82, 4-benzyl-8-{[4-(trifluoromethyl)phenyl]methyl}1,4,8,10-tetraazatricyclo[7.3.0.0^2,6]dodeca-2 (6), 9-diene-7-one]
Time course of hClpP activity [3]: time-dependent increase in hClpP activity

EC50 [2, 6]: 0.244 µM
Structure (SMILES): N#Cc1cccc(CN2CCC3=C(C2)C(=O)N(Cc2ccc(Cl)cc2)C2=NCC(F)(F)CN23)c1 [Example 71, 3-({9-[(4-chlorophenyl)methyl]-13,13-difluoro-8-oxo-1,5,9,11-tetraazatricyclo[8.4.0.0^2,7]tetradeca-2 (7), 10-dien-5-yl}methyl)benzonitrile]

EC50 [2, 6]: 0.011 µM
Structure (SMILES): O=C1C2=C(CN(Cc3ccccc3)C2)N2CCN=C2N1Cc1ccc(Cl)cc1 [Example 80, 4-benzyl-8-[(4-chlorophenyl)methyl]1,4,8,10-tetraazatricyclo[7.3.0.0^2,6]dodeca-2 (6),9-diene-7-one]
Time course of hClpP activity [3]: time-dependent increase in hClpP activity

EC50 [2, 6]: 0.077 µM
Structure (SMILES): Cc1nc2c(c(=O)n1Cc1ccc(Br)cc1)CN(Cc1cccc(C#N)c1)CC2 [Example 72, 3-({3-[(4-bromophenyl)methyl]-2-methyl-4-oxo-3H,4H,5H,6H,7H,8H-pyrido[4,3-d]pyrimidin-6-yl}methyl)benzonitrile]

EC50 [2, 6]: 0.0021 µM
Structure (SMILES): N#Cc1cccc(CN2CC3=C(C2)N2CCN=C2N(Cc2ccc(C(F)(F)F)cc2)C3=O)c1 [Example 77, 3-[(7-oxo-8-{[4-(trifluoromethyl)phenyl]methyl}-1,4,8,10-tetraazatricyclo[7.3.0.0^2,6]dodeca-2 (6),9-dien-4-yl)methyl]benzonitrile]

EC50 [2, 6]: 0.28 µM
Structure (SMILES): N#Cc1cccc(CN2CCC3=C(C2)C(=O)N(Cc2ccc(Cl)cc2)C2=NCCCN23)c1 [Example 83, 3-({9-[(4-chlorophenyl)methyl]-8-oxo-1,5,9,11-tetraazatricyclo[8.4.0.0 ^2,7]tetradeca-2(7), 10-dien-5yl}methyl)benzonitrile]
Time course of hClpP activity [3]: time-dependent increase in hClpP activity

EC50 [1, 5]: 0.021 µM | EC50 [2, 6]: 0.022 µM
Structure (SMILES): N#Cc1cccc(CN2CCC3=C(C2)C(=O)N(Cc2ccc(C(F)(F)F)cc2)C2=NCCCN23)c1 [Ex. 62, 3-[(8-oxo-9-{[4-(trifluoromethyl)phenyl]methyl}-1,5,9,11-tetraazatricyclo[8.4.0.0^2,7]tetradeca-2(7),10-dien-5-yl)methyl]benzonitrile]
Dose-dependency of hClpP activation [3]: Dose-dependent increases in hClpP activity

EC50 [2, 6]: 1.2 µM
Structure (SMILES): N#Cc1cccc(CC2CCC3=C(C2)C(=O)N(Cc2ccc(C(F)(F)F)cc2)C2=NCCN23)c1 (stereo not shown) [Ex. 67, 3-[(5-oxo-4-{[4-(trifluoromethyl)phenyl]methyl}-1H,2H,4H,5H,6H,7H,8H,9H-imidazo[1,2-a]quinazolin-7-yl)methyl]benzonitrile]
Dose-dependency of hClpP activation [3]: Dose-dependent increases in hClpP activity

EC50 [2, 6]: 0.013 µM
Structure (SMILES): N#Cc1cccc(CN2CCC3=C(C2)C(=O)N(Cc2ccc(Br)cc2)C2=NCCCN23)c1 [Example 84, 3-({9-[(4-bromophenyl)methyl]-8-oxo-1,5,9,11-tetraazatricyclo[8.4.0.0 ^2,7]tetradeca-2(7), 10-dien-5yl}methyl)benzonitrile]
Time course of hClpP activity [3]: time-dependent increase in hClpP activity

EC50 [2, 6]: 0.069 µM
Structure (SMILES): Cc1nc2c(c(=O)n1Cc1ccc(C(F)(F)F)cc1)CN(Cc1cccc(C#N)c1)CC2 [Example 73, 3-[(2-methyl-4-oxo-3-{[4-(trifluoromethyl)phenyl]methyl}-3H,4H,5H,6H,7H,8H-pyrido[4,3-d]pyrimidin-6-yl)methyl]benzonitrile]

EC50 [2, 6]: 0.097 µM
Structure (SMILES): Cc1nc2c(c(=O)n1Cc1ccc(Cl)cc1)CN(Cc1cccc(C#N)c1)C2 [Example 69, 3-({3-[(4-chlorophenyl)methyl]-2-methyl-4-oxo-3H,4H,5H,6H,7H-pyrrolo[3,4-d]pyrimidin-6-yl}methyl)benzonitrile]

EC50 [2, 6]: 0.02 µM
Structure (SMILES): N#Cc1cccc(CN2CCc3ncn(Cc4ccc(Br)cc4)c(=O)c3C2)c1 [Example 74, 3-({3-[(4-bromophenyl)methyl]-4-oxo-3H,4H,5H,6H,7H,8H-pyrido[4,3-d]pyrimidin-6-yl}methyl)benzonitrile]

EC50 [2, 6]: 0.0055 µM
Structure (SMILES): N#Cc1cccc(CN2CC3=C(C2)N2CCN=C2N(Cc2ccc(Cl)cc2)C3=O)c1 [Ex. 66]
Dose-dependency of hClpP activation [3]: Dose-dependent increases in hClpP activity

EC50 [2, 6]: 0.003 µM
Structure (SMILES): N#Cc1cccc(CN2CC3=C(C2)N2CCN=C2N(Cc2ccc(Br)cc2)C3=O)c1 [Example 76, 3-({8-[(4-bromophenyl)methyl]-7-oxo-1,4,8,10-tetraazatricyclo[7.3.0.0^2,6}dodeca-2(6),9-dien-4-yl}methyl)benzonitrile]
